Experiments:
EGFR L858R/T790M = EGFR L858R/T790M (Homo sapiens, UniProt P00533, L858R/T790M); experiment: Kinase inhibitory activity against EGFR bearing the L858R/T790M double mutation; assay type: biochemical; settings: 10 pt curves, 3 μM top concentration, 10 μM ATP; read-out: IC50 for kinase inhibition, EGFR L858R T790M
Summary of the method: (§1)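 Each assay used 10 μM ATP. Inhibitors were tested as 10-point curves, highest concentration 3 μM, no replicates.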

[1] = biological target: T1, BaF3 cells expressing the target EGFR mutations (Homo sapiens, UniProt P00533, T790M/L858R, cells depend on it); experiment: Antiproliferative activity (MTT) against BaF3 cells expressing the target EGFR mutations; assay type: cell-based; settings: BAF3 EGFR L858R-T790M PURO POOL cells, read-out: IC50, BAF3 EGFR L858R-T790M PURO POOL
T1 construct: IC50, BAF3 EGFR L858R-T790M PURO POOL; other: BAF3 EGFR L858R-T790M PURO POOL cells, MTT; IC50, BAF3 EGFR L858R-T790M PURO POOL; other: BAF3 EGFR L858R-T790M PURO POOL cells; MTT
T1 sequence (P00533 whole entry T790M/L858R): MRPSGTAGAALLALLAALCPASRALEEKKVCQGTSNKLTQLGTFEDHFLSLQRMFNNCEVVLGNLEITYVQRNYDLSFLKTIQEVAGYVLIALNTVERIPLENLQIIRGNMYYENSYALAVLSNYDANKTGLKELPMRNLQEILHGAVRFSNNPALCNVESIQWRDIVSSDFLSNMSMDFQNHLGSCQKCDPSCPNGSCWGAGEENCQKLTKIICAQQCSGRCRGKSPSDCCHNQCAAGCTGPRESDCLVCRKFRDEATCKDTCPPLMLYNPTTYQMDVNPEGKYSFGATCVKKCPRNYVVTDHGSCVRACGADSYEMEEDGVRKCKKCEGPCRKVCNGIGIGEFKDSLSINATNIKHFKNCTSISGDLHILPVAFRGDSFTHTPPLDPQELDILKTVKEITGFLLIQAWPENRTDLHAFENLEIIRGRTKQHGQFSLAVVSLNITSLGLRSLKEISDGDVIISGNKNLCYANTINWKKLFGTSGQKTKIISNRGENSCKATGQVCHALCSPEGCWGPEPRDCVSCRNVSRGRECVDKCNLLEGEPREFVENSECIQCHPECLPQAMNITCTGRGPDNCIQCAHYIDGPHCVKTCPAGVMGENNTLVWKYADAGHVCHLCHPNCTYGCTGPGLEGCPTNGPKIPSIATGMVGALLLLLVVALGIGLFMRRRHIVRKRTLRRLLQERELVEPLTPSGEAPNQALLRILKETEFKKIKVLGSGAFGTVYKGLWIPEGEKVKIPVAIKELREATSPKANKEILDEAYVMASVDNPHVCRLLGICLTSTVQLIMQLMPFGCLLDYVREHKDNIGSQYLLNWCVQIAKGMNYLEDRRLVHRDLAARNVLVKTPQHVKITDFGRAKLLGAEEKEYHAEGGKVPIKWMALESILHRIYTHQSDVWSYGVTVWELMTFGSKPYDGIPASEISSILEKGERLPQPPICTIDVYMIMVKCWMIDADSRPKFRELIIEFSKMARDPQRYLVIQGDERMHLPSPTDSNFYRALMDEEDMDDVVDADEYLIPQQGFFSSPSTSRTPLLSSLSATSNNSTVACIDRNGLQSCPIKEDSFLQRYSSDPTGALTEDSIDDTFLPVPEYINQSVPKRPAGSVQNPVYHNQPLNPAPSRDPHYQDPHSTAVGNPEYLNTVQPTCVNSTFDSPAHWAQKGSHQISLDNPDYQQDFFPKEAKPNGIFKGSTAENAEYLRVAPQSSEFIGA
Summary of the method: (§2)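 Antiproliferative effect was measured by MTT in BaF3 cells engineered to express mutant EGFR, with wildtype-EGFR BaF3 cells as the control line.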

[2] = biological target: T2, BaF3 cells expressing the target EGFR mutations (Homo sapiens, UniProt P00533, T790M, cells depend on it, form not given); experiment: as above; assay type: cell-based; settings: BAF3 EGFR DEL T790M PURO POOL cells, read-out: IC50, BAF3 EGFR DEL T790M PURO POOL
T2 construct: IC50, BAF3 EGFR DEL T790M PURO POOL; other: BAF3 EGFR DEL T790M PURO POOL cells, MTT; other: BAF3 EGFR DEL T790M PURO POOL cells; MTT
T2 sequence (P00533 with tags, fused parts or gaps DEL746-750/T790M, form open): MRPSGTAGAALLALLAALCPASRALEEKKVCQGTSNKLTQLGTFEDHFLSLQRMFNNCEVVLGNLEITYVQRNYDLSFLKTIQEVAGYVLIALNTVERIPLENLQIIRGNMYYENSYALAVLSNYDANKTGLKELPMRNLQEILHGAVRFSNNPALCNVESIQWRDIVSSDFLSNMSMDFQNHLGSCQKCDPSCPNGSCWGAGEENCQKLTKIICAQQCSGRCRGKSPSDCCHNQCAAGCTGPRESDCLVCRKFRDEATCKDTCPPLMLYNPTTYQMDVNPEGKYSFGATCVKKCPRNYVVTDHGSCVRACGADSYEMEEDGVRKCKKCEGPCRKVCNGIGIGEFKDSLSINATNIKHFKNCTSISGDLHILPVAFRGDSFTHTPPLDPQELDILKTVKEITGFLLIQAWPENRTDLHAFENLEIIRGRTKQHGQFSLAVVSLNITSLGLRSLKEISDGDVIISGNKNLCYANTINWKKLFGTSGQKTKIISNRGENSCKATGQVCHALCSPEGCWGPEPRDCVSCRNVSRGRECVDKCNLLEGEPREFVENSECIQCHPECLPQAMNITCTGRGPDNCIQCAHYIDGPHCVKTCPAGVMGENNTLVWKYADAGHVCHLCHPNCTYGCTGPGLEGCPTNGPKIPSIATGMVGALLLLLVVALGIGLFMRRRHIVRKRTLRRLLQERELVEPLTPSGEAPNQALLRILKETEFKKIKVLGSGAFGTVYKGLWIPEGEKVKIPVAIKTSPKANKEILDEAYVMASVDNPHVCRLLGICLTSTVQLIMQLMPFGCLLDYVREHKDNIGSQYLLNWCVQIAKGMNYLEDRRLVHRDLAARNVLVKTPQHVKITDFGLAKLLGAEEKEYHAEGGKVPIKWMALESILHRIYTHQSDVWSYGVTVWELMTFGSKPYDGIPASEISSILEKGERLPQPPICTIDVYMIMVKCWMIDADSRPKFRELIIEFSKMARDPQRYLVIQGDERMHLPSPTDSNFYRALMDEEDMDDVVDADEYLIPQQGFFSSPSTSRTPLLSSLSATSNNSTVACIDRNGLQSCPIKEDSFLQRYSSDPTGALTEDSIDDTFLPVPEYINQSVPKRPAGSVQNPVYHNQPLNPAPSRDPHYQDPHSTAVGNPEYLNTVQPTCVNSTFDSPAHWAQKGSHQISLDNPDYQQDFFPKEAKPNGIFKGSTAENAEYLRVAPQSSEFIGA
Summary of the method: as §2

EGFR L858R = EGFR L858R (Homo sapiens, UniProt P00533, L858R); experiment: Kinase inhibitory activity against EGFR bearing the L858R mutation; assay type: biochemical; settings: 10 pt curves, 3 μM top concentration, 10 μM ATP; read-out: IC50 for kinase inhibition, EGFR L858R
Summary of the method: as §1

[3] = biological target: human EGFR (native sequence) (Homo sapiens, UniProt P00533); experiment: Kinase inhibitory activity against human EGFR (native sequence); assay type: biochemical; settings: 10 pt curves, 3 μM top concentration, 10 μM ATP; read-out: IC50 for kinase inhibition, EGFR
Sequence of human EGFR (native sequence) (P00533 25-1210): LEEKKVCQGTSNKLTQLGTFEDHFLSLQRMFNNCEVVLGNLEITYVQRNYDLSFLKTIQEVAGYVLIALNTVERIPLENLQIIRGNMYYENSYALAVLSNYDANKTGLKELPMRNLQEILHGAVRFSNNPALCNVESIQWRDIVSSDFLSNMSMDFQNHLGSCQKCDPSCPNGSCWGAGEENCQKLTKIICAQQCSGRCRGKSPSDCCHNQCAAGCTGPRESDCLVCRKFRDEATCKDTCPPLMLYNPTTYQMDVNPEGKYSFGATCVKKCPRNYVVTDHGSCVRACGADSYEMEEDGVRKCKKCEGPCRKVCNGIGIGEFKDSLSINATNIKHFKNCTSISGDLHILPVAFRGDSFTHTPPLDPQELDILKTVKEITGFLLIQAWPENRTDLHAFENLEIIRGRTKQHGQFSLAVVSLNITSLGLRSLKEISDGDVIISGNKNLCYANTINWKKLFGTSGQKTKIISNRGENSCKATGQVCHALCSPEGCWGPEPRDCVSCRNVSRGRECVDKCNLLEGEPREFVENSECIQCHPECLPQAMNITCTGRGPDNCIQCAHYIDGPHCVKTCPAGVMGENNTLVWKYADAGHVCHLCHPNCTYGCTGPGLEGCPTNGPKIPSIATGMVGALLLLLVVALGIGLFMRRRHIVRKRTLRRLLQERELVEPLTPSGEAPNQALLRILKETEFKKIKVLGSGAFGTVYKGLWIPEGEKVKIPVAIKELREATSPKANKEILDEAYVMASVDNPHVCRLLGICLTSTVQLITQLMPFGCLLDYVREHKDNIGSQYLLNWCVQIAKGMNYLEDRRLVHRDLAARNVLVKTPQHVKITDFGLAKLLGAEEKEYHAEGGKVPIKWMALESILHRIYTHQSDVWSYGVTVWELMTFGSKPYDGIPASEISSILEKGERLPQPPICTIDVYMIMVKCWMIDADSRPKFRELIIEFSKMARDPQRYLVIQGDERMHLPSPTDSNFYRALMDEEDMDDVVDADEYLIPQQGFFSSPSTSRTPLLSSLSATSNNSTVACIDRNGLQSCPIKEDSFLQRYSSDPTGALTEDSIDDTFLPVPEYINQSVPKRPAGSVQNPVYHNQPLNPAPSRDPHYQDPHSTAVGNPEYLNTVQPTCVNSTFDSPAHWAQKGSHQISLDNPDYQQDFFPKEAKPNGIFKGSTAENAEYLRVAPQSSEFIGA
Summary of the method: as §1

[4] = system: BaF3 cells expressing wildtype EGFR; experiment: Antiproliferative activity (MTT) against control BaF3 cells expressing wildtype EGFR; assay type: cell-based; settings: Mus musculus, BAF3 parental cells
Summary of the method: as §2

Sequence of EGFR L858R/T790M (P00533 25-1210 T790M/L858R): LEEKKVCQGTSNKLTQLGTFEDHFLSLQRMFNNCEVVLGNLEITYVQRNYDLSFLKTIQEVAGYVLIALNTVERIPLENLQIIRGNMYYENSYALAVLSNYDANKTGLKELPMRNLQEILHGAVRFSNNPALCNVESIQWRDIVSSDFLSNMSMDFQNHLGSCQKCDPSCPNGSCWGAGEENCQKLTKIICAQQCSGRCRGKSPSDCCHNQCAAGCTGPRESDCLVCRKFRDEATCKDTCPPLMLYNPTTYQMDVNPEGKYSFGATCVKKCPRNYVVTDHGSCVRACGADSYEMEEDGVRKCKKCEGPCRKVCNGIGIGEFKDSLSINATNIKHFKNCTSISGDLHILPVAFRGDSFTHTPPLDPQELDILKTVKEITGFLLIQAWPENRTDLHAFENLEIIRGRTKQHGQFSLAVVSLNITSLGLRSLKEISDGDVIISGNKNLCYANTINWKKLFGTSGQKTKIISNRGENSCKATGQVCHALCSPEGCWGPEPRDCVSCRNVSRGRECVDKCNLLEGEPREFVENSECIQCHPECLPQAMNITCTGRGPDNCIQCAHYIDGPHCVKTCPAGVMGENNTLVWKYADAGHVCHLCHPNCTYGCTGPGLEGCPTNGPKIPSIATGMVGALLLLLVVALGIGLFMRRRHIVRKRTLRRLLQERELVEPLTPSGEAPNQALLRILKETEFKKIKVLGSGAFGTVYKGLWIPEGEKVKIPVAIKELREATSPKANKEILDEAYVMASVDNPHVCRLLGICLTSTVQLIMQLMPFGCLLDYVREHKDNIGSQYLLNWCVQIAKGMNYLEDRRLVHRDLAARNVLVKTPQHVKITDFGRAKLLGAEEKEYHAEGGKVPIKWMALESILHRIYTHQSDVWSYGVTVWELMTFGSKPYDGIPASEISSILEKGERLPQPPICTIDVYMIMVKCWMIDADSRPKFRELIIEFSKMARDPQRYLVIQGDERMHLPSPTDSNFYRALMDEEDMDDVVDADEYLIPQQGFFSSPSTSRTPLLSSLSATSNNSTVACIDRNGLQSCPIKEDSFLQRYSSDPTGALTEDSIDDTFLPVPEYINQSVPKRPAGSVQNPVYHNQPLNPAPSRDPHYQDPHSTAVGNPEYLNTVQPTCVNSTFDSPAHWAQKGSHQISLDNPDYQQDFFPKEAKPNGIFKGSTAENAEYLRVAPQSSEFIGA

SMILES	IC50 (EGFR L858R/T790M) [nM]	GI50 [1] [nM]	GI50 [2] [nM]	IC50 (EGFR L858R) [nM]	IC50 [3] [nM]	IC50 [4] [nM]
C=CC(=O)Nc1cc(Nc2ncc(Cl)c(Nc3ccccc3P(C)(C)=O)n2)c(OC)cc1C#CCN1CCCCCC1 [Example 165, N-(2-(3-(azepan-1-yl)prop-1-yn-1-yl)-5-((5-chloro-4-((2-(dimethylphosphoryl)phenyl)amino)pyrimidin-2-yl)amino)-4-methoxyphenyl)acrylamide]	< 50	< 50	< 50	< 50	< 50	≥ 250
C=CC(=O)Nc1cc(Nc2ncc(Cl)c(Nc3ccccc3P(C)(C)=O)n2)c(OC)cc1C#CCN(C)C(C)C [Example 166, N-(5-((5-chloro-4-((2-(dimethylphosphoryl)phenyl)amino)pyrimidin-2-yl)amino)-2-(3-(isopropyl(methyl)amino)prop-1-yn-1-yl)-4-methoxyphenyl)acrylamide]	< 50	< 50	< 50	< 50	< 50	≥ 250
C=CC(=O)Nc1cc(Nc2ncc(Cl)c(Nc3ccccc3P(C)(C)=O)n2)c(OC)cc1C#CCN1CCCCC1 [Example 167, N-(5-((5-chloro-4-((2-(dimethylphosphoryl)phenyl)amino)pyrimidin-2-yl)amino)-4-methoxy-2-(3-(piperidin-1-yl)prop-1-yn-1-yl)phenyl)acrylamide]	< 50	< 50	< 50	< 50	< 50	< 50
C=CC(=O)Nc1cc(Nc2ncc(Cl)c(Nc3ccccc3P(C)(C)=O)n2)c(OC)cc1C#CCN(C)C1CCCC1 [Example 168, N-(5-((5-chloro-4-((2-(dimethylphosphoryl)phenyl)amino)pyrimidin-2-yl)amino)-2-(3-(cyclopentyl(methyl)amino)prop-1-yn-1-yl)-4-methoxyphenyl)acrylamide]	< 50	< 50	< 50	< 50	< 50	< 50
